Our source for the IC50 and inhibition values is patent publication US8399465B2, “Compounds with two fused bicyclic heteroaryl moieties as modulators of leukotriene A4 hydrolase” (Janssen Pharmaceutica NV, priority 2009, dated 2013).

As a reminder, the IC50 is the midpoint of a concentration-inhibition curve.

The target of test [1] is T1, recombinant human LTA4 hydrolase (rhLTA4H) (Homo sapiens, UniProt P09960).
T1 construct: made in house; host or cells: Spodoptera frugiperda (Sf-9) cells, baculovirus (pFastBac1)
T1 sequence (P09960 1-611): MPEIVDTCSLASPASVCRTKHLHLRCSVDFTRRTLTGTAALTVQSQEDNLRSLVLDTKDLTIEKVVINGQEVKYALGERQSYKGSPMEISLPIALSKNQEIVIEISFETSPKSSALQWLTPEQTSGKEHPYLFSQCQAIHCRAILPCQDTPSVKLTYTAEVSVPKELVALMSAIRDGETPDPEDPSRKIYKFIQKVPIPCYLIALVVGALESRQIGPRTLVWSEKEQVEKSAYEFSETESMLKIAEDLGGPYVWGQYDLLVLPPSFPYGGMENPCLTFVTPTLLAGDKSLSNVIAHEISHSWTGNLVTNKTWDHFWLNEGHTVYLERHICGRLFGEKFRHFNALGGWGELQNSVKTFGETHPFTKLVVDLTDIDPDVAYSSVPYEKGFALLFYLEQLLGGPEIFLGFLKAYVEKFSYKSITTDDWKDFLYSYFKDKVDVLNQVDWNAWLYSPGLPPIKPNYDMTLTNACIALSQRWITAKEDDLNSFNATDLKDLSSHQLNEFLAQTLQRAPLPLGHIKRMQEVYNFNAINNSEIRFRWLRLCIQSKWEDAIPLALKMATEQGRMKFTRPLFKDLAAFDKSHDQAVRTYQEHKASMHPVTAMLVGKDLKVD
Description: Recombinant human LTA4 hydrolase assay for LTA4 hydrolase inhibitor activity. It is filed as biochemical. To be noted: rhLTA4H, LTB4 by immunoassay; single determination or average of two or more; mark after value = form tested: ′ free base, ″ hydrochloride, ^ formate; read-out: IC50. The essentials:
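Baculovirus/Sf-9-expressed human LTA4H (10 ng) was preincubated 10 min at rt with compound in assay buffer (10% DMSO in compound dilution), then reacted 30 min at rt with LTA4 free acid made from its methyl ester. LTB4 produced was measured by ELISA after dilution; IC50 from non-linear regression, single or averaged determinations.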

Test [2] has as its system LTB4 production in murine blood (LTA4H). Description: LTB4 production by calcium ionophore-stimulated murine blood for LTA4H inhibitor activity. Type of test: cell-based, CD-1 mice. Particulars: Mus musculus; murine blood diluted 1 in 15, A23187 stimulated; single determination or average; mark after value = form tested: ′ free base, ″ hydrochloride, ^ formate; read-out: IC50. The essentials:
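Heparinized blood from CD-1 mice was preincubated with compound for 15 min at 37° C, then stimulated with calcium ionophore A23187 (final 7 μg/mL) for 30 min. Centrifugation stopped the reaction, and LTB4 in the supernatant was measured by enzyme immunoassay. Values are single determinations or means of two or more.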

Test [3] concerns arachidonic acid-induced neutrophil influx in murine ear tissue. Description: Murine arachidonic acid-induced inflammation model: neutrophil influx (myeloperoxidase) in ear. Particulars: Mus musculus, read-out: % Inh. MPO. Type of test: in vivo, Balb/c mice. The protocol:
(§1) Assay 3: Murine Arachidonic Acid-Induced Inflammation Model
(§2) LTA4H inhibitor compounds of the present invention were dissolved in 20% cyclodextran/H2O at a concentration of 3 mg/mL. The solutions were administered by oral gavage to female Balb/c mice weighing approximately 20 grams each (0.2 mL per mouse, 30 mg of LTA4H inhibitor compound per kg). Sixty minutes after being administered an LTA4 inhibitor, each mouse received topical application of 20 μL of arachidonic acid (100 mg/mL in acetone) to the left ear and 20 μL of acetone only to the right ear. After 3 h, the mice were sacrificed, blood was withdrawn in heparinized syringes, and 8 mm ear biopsies were taken. Ear biopsies were weighed to determine edema and then frozen at −80° C. until needed for determination of neutrophil influx.
Neutrophil influx was quantified by measuring the activity of myeloperoxidase (MPO), a neutrophil-specific enzyme. […] Debris was removed by centrifugation at 14000×g for 10 min. […] The microtiter plate contents were held at room temperature until the sample with the highest concentration of MPO reached an absorbance value of 0.4 at 650 nm. The reaction was stopped by addition of 50 μL 1 M H2SO4 to each sample well, and the myeloperoxidase activity in each sample was determined from the absorbance at […]. The background value from the right ear, treated only with acetone, was subtracted from that for the left ear, treated with arachidonic acid in acetone, for each animal. The percent inhibition of neutrophil influx (% Inh. MPO) by compounds of the invention was determined by comparison to animals treated identically, except that the solution administered by oral gavage was devoid of inhibitor compound. All compounds were assayed in their free base form.

Test [4] has as its system ex vivo calcium ionophore-stimulated LTB4 production in whole blood. Description: Murine arachidonic acid-induced inflammation model: ex vivo stimulated LTB4 production in blood. Also on record: species or system Balb/c mice. To be noted: Mus musculus; 30 mg/kg oral gavage; blood diluted 1:1, A23187 stimulated ex vivo; percent inhibition of LTB4 production; read-out: % Inh. LTB4. The protocol: as §1, §2
The microtiter plate contents were incubated for 30 min at 37° C. in a humidified incubator. The reaction was terminated by centrifugation (833×g, 10 min at 4° C.). Supernatants were analyzed for LTB4 by a commercially available enzyme-linked immunoassay (Cayman Chemical Co.) in accordance with the manufacturer's instructions. The percent inhibition of ex vivo stimulated LTB4 production (% Inh. LTB4) was determined by comparison to animals treated identically except that the solution administered by oral gavage was devoid of inhibitor compound.

Setting [5] is: 30 mg/kg oral gavage, 60 min before topical arachidonic acid, ear biopsy after 3 h, percent inhibition of neutrophil influx.

Where a name gives a salt, the structure may show the parent alone. Read-outs that look alike come from different tables or passages of the source.

In the case of `CC(=O)N1C[C@H]2CC[C@@H](C1)N2Cc1cc2ccc(Oc3nc4ncccc4s3)cc2o1` [Example 119, meso-1-{8-[6-(Thiazolo[4,5-b]pyridin-2-yloxy)-benzofuran-2-ylmethyl]-3,8-diaza-bicyclo[3.2.1]oct-3-yl}-ethanone], the IC50 in test [1] was 36 nM; in test [2] it was 220 nM. Moreover, the inhibition at 30 mg/kg amounted to 83% in test [3] (setting [5]) and 78% in test [4].
In the case of `c1cnc2nc(Oc3ccc4oc(CN5C[C@@H]6C[C@H]5CO6)cc4c3)sc2c1` [Example 99, (1S,4S)-2-[2-(2-Oxa-5-aza-bicyclo[2.2.1]hept-5-ylmethyl)-benzofuran-5-yloxy]-thiazolo[4,5-b]pyridine], the IC50 in test [1] came out at 37 nM; in test [2], 63 nM. Moreover, the inhibition at 30 mg/kg was 58% in test [3] (setting [5]) and 15% in test [4].
On the same counts, the results for `CNC(=O)C1CCN(Cc2coc3cc(Oc4nc5ncccc5s4)ccc23)CC1` [Example 214, 1-[6-(Thiazolo[4,5-b]pyridin-2-yloxy)-benzofuran-3-ylmethyl]-piperidine-4-carboxylic acid methylamide] are 2 nM, 19 nM, 88% and 90%.
On the same counts, the results for `CC(=O)N1C[C@@H]2CC[C@H]1CN2Cc1coc2cc(Oc3nc4ncccc4s3)ccc12` [Example 237, (1S,4S)1-{5-[6-(Thiazolo[4,5-b]pyridin-2-yloxy)-benzofuran-3-ylmethyl]-2,5-diaza-bicyclo[2.2.2]oct-2-yl}-ethanone] are 2 nM, 22 nM, 81% and 90%.
On the same counts, the results for `CC(=O)N[C@H]1C[C@H]2CC[C@@H](C1)N2Cc1cc2ccc(Oc3nc4ncccc4s3)cc2o1` [Example 118, meso-endo-N-{8-[6-(Thiazolo[4,5-b]pyridin-2-yloxy)-benzofuran-2-ylmethyl]-8-aza-bicyclo[3.2.1]oct-3-yl}-acetamide] are 23 nM, 50 nM, 97% and 89%.
With `CC(=O)N[C@@H]1C[C@H]2CC[C@@H](C1)N2Cc1cc2cc(Oc3nc4ncccc4s3)ccc2o1` [Example 104, meso-exo-N-{8-[5-(Thiazolo[4,5-b]pyridin-2-yloxy)-benzofuran-2-ylmethyl]-8-aza-bicyclo[3.2.1]oct-3-yl}-acetamide], the IC50 in test [1] stood at 10 nM; in test [2] it was 16 nM. The inhibition at 30 mg/kg in test [3] (setting [5]) was found to be 92%; in test [4], 83%.
The matching figures for `CN(C)Cc1cc2cc(Oc3nc4ncccc4s3)ccc2o1` [Example 112, Dimethyl-[5-(thiazolo[4,5-b]pyridin-2-yloxy)-benzofuran-2-ylmethyl]-amine]: 42 nM, 70 nM, 17% and 56%.
Take `CC(=O)NC1CCN(Cc2coc3cc(Oc4nc5ncccc5s4)ccc23)C1` (stereo not drawn) [Example 307, N-{1-[6-(Thiazolo[4,5-b]pyridin-2-yloxy)-benzofuran-3-ylmethyl]-pyrrolidin-3-yl}-acetamide formate]: the IC50 in test [1] turned out to be 5 nM; in test [2], 8 nM. For the same compound, the inhibition at 30 mg/kg in test [3] (Neutrophil) came to 78%; in test [4], 81%.
`CC(=O)N1CC2CN(Cc3coc4cc(Oc5nc6ncccc6s5)ccc34)CC2C1` (stereo not drawn) [Example 211, meso-1-{5-[6-(Thiazolo[4,5-b]pyridin-2-yloxy)-benzofuran-3-ylmethyl]-hexahydro-pyrrolo[3,4-c]pyrrol-2-yl}-ethanone]: the IC50 amounted to 11 nM in test [1] and 13 nM in test [2]. The inhibition at 30 mg/kg in test [3] (setting [5]) is 86%; in test [4], 92%.
On to `c1cnc2nc(Oc3ccc4c(CN5CCCC5)coc4c3)sc2c1` [Example 185, 2-(3-Pyrrolidin-1-ylmethyl-benzofuran-6-yloxy)-thiazolo[4,5-b]pyridine], for which the IC50 in test [1] came out at 4 nM; in test [2], 12 nM. The inhibition at 30 mg/kg came to 64% in test [3] (setting [5]) and 75% in test [4].
With `CC(=O)N1CCN(CCc2coc3cc(Oc4nc5ncccc5s4)ccc23)CC1` [Example 257, 1-(4-{2-[6-(Thiazolo[4,5-b]pyridin-2-yloxy)-benzofuran-3-yl]-ethyl}-piperazin-1-yl)-ethanone], the IC50 in test [1] worked out at 3 nM; in test [2], 169 nM. Besides, the inhibition at 30 mg/kg in test [3] (setting [5]) turned out to be 87%; in test [4], 68.7%.
The matching figures for `NC(=O)N1C[C@H]2C[C@@H]1CN2Cc1coc2cc(Oc3nc4ncccc4s3)ccc12` [Example 160, (1R,4R)-5-[6-(Thiazolo[4,5-b]pyridin-2-yloxy)-benzofuran-3-ylmethyl]-2,5-diaza-bicyclo[2.2.1]heptane-2-carboxylic acid amide]: 5 nM, 49 nM, 77% and 90%.
Consider `CC(=O)N1CCN(Cc2coc3cc(Oc4nc5ncccc5s4)ccc23)CC1` [Example 196, 1-{4-[6-(Thiazolo[4,5-b]pyridin-2-yloxy)-benzofuran-3-ylmethyl]-piperazin-1-yl}-ethanone formate], for which the IC50 in test [1] amounted to 11 nM; in test [2], 38 nM. In addition, the inhibition at 30 mg/kg in test [3] (Neutrophil) was found to be 93%; in test [4] it was 91%.
As to `CC(C)(C)C(=O)NC1CCN(Cc2cc3ccc(Oc4nc5ncccc5s4)cc3o2)C1` (stereo not drawn) [Example 236, 2,2-Dimethyl-N-{1-[6-(thiazolo[4,5-b]pyridin-2-yloxy)-benzofuran-2-ylmethyl]-pyrrolidin-3-yl}-propionamide formate], the IC50 came to 60 nM in test [1] and 190 nM in test [2]. Besides, the results for the inhibition at 30 mg/kg in test [3] (Neutrophil) and in test [4] were 34% and 39%, respectively.
As to `COCCN(C)Cc1coc2cc(Oc3nc4ncccc4s3)ccc12` [Example 184, (2-Methoxy-ethyl)-methyl-[6-(thiazolo[4,5-b]pyridin-2-yloxy)-benzofuran-3-ylmethyl]-amine], the IC50 was 8 nM in test [1] and 49 nM in test [2]. Moreover, the inhibition at 30 mg/kg in test [3] (setting [5]) was 53%; in test [4], 82%.
